# pIC50: −log10 of the molar value.
# Biological target: T1, human ALK5 (ALK5 T204D kinase domain) (Homo sapiens, UniProt P36897, T204D)
# T1 construct: The kinase domain of human ALK5 (amino acids 200-503); made in house; host or cells: insect cells (baculovirus)
# T1 sequence (P36897 200-503 T204D): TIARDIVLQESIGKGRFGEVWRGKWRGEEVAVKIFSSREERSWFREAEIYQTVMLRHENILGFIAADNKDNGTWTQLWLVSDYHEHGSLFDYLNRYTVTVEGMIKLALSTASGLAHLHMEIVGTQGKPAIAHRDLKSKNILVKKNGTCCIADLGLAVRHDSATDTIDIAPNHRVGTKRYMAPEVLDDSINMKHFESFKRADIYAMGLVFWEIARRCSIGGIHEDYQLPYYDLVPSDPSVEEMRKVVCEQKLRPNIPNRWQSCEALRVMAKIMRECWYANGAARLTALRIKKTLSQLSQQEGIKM
# Experiment: ALK5 kinase assay, [33P] phosphate incorporation into casein
# Assay type: biochemical
# Details: casein substrate, 1 μM unlabelled ATP
# Experimental: The kinase activity of ALK5 is assessed by measuring radiolabelled phosphate [33P] incorporation in to the generic substrate, casein. The kinase domain of human ALK5 (amino acids 200-503) is fused to an N-terminal histidine tag. The kinase activity of ALK5 is rendered constitutive via point mutation at amino acid 204 (threonine to aspartate modification, ALK5 T204D) and the kinase construct is engineered to be expressed from a baculovirus expression construct in insect cells. The purified, recombinantly-expressed histidine-tagged ALK5 T204D protein is dissolved at 5.4 mg/ml in 50 mM Tris-HCl pH 8.0, 150 mM NaCl, 5 mM DTT. ALK5 T204D is dissolved to 2.5 μg/ml in assay buffer (Assay buffer: 20 mM Tris-HCl pH 7.4, 10 mM MgCl2, 2 mM MnCl2) on the day of use.
# Test compounds and reference compounds are dissolved in assay buffer without DTT containing 5% (v/v) DMSO. Stock solutions of test and reference compounds are diluted in assay buffer with DTT (1.25 mM) containing 4.5% (v/v) DMSO. 10 μl of test or reference compound are added to the appropriate wells of 96 well U-bottomed plate. Total enzyme activity is determined by measuring ALK5 T204D activity in the absence of ALK5 kinase inhibitor reference compounds. Non-specific binding (NSB) is determined by measuring the activity of ALK5 T204D in the presence of ALK5 kinase inhibitor reference compounds. 10 μl of dephosphorylated casein stock solution (dephosphorylated casein is dissolved in ddH2O at 20 mg/ml) is added per well (200 μg/well final assay concentration). 20 μl of ALK5 T204D (2.5 μg/ml solution) is added per well (50 ng/well final assay concentration). The plates are left to incubate at room temperature for 10 minutes.
# 10 μl of ATP mix is added to the well to initiate the reaction (0.66 nM [^33P]ATP/1 μM unlabelled ATP/well final assay concentration). The ATP mix is prepared as follows, unlabelled ATP (3 mM) is dissolved in ddH2O and pH adjusted to 7.4. The stock concentration of [^33P]ATP is 10 μCi/μl. The appropriate volume of [^33P]ATP is added to unlabelled ATP solution such that the final assay concentration per well is 0.1 μCi. Following addition of the ATP mix, the plates are incubated at room temperature for 50 minutes. The kinase reaction is terminated by the addition of 50 μL Stop Buffer (20 mM Tris-HCl pH 7.4, 10 mM EDTA).
# 75 μl/well from the reaction plate is transferred to a Multiscreen-IP plate (MultiScreen-IP plates are prepared by added 50 μL of 70% (v/v) ethanol per well and incubated for 5 minutes at room temperature. The ethanol is removed by aspiration via a MultiScreen HTS Vacuum Manifold unit (Millipore, Cat no: MSVMHT500). The plates are washed twice by adding 200 μl/well ddH2O). The MultiScreen-IP plate is incubated at room temperature for 30 minutes to allowing binding of casein to the plate. The MultiScreen-IP plates are washed three times by adding 200 μl/well 100 mM phosphoric acid solution and the gasket is carefully removed from the back of the MultiScreen-IP plate and the plate dried in the oven for 30 minutes. The MultiScreen-IP plate is backsealed, 50 μL of Microscint™20 is added, then the plates are topsealed and radiolabelled casein detected and quantified on a TopCount™ plate-reader using the ^33P scintillation protocol.
row,pIC50,Structure (SMILES)
1,7.41,"CC(C)N1CCN(Cc2ccc(-c3cncc(-c4cc(-c5ccccn5)nc(C(C)(C)O)c4)c3)cc2)CC1 [Example 2.80, 2-(5″-[4-(4-Isopropyl-piperazin-1-ylmethyl)-phenyl]-[2,2′;4′,3″]terpyridin-6′-yl)-propan-2-ol]"
2,7.70,"CC(C)(O)c1cc(-c2cncc(-c3cnn(C4CCOCC4)c3)c2)cc(-c2ccccn2)n1 [Example 2.84, 2-{5″-[1-(Tetrahydro-pyran-4-yl)-1H-pyrazol-4-yl]-[2,2′;4′,3″]terpyridin-6′-yl}-propan-2-ol]"
3,7.24,"c1ccc(-c2cc(-c3cccnc3)cc(NCCc3c[nH]c4ccccc34)n2)nc1 [Example 1.10, [2-(1H-Indol-3-yl)-ethyl]-[2,2′;4′,3″]terpyridin-6′-yl-amine]"
4,7.38,"CCNc1cc(-c2cncc(-c3cccc(CN4CCN(C(C)C)CC4)c3)c2)cc(-c2ccccn2)n1 [Example 2.114, Ethyl-{5″-[3-(4-isopropyl-piperazin-1-ylmethyl)-phenyl]-[2,2′;4′,3″]terpyridin-6′-yl}-amine]"
5,7.23,"[2H]C([2H])([2H])N1CCN(C(=O)c2ccc(-c3cncc(-c4cc(-c5ccccn5)nc(C(C)(C)O)c4)c3)cc2)CC1 [Example 2.83, {4-[6′-(1-Hydroxy-1-methyl-ethyl)-[2,2′;4′,3″]terpyridin-5″-yl]-phenyl}-(4-methyl-d3-piperazin-1-yl)-methanone]"
6,7.15,"Cc1cc(CN2CCN(C(C)C)CC2)ccc1-c1cncc(-c2cc(-c3ccccn3)nc(C(C)(C)O)c2)c1 [Example 2.90, 2-{5″-[4-(4-Isopropyl-piperazin-1-ylmethyl)-2-methyl-phenyl]-[2,2′;4′,3″]terpyridin-6′-yl}-propan-2-ol]"
7,7.85,"CNc1cc(-c2cncc(-c3ccc(CN4CCN(C(C)C)CC4)cc3)c2)cc(-c2ccccn2)n1 [Example 2.24, {5″-[4-(4-Isopropyl-piperazin-1-ylmethyl)-phenyl]-[2,2′;4′,3″]terpyridin-6′-yl}-methyl-amine]"
8,6.72,"c1ccc(-c2cc(-c3cccnc3)cc(NCc3cccc4[nH]ccc34)n2)nc1 [Example 1.15, (1H-Indol-4-ylmethyl)-[2,2′;4′,3″]terpyridin-6′-yl-amine]"
9,7.80,"c1cncc(-c2cc(NCCc3c[nH]c4ccccc34)nc(-c3ccco3)c2)c1 [Example 1.1, (6′-Furan-2-yl-[3,4′]bipyridinyl-2′-yl)-[2-(1H-indol-3-yl)-ethyl]-amine]"
10,7.19,"CC(C)(C)N1CCN(Cc2cccc(-c3cncc(-c4cc(NC5CC5)nc(-c5ccccn5)c4)c3)c2)CC1 [Example 2.119, {5″-[3-(4-tert-Butyl-piperazin-1-ylmethyl)-phenyl]-[2,2′;4′,3″]terpyridin-6′-yl}-cyclopropyl-amine]"
11,7.89,"[2H]C([2H])([2H])Nc1cc(-c2cncc(-c3ccc(CN4CCN(C(C)(C)C)CC4)cc3)c2)cc(-c2ccccn2)n1 [Example 2.107, {5″-[4-(4-tert-Butyl-piperazin-1-ylmethyl)-phenyl]-[2,2′;4′,3″]terpyridin-6′-yl}-methyl-d3-amine]"
12,6.67,"Oc1cccc(CNc2cc(-c3cncc(Br)c3)cc(-c3ccccn3)n2)c1 [Example 1.23, 3-[(5″-Bromo-[2,2′;4′,3″]terpyridin-6′-ylamino)-methyl]-phenol]"
13,6.68,"CNc1cc(-c2cncc(-c3cccc(N4CCCC4)c3)c2)cc(-c2ccccn2)n1 [Example 2.12, Methyl-[5″-(3-pyrrolidin-1-yl-phenyl)-[2,2′;4′,3″]terpyridin-6′-yl]-amine]"
14,6.63,"CN(C)[C@@H]1CCN(Cc2ccc(-c3cncc(-c4cc(NC5CC5)nc(-c5ccccn5)c4)c3)cc2)C1 [Example 2.62, Cyclopropyl-{5″-[4-((R)-3-dimethylamino-pyrrolidin-1-ylmethyl)-phenyl]-[2,2′;4′,3″]terpyridin-6′-yl}-amine]"
15,7.85,"[2H]C([2H])([2H])Nc1cc(-c2cncc(-c3ccc(CN4CCNCC4)cc3)c2)cc(-c2ccccn2)n1 [Example 2.102, Methyl-d3-[5″-(4-piperazin-1-ylmethyl-phenyl)-[2,2′;4′,3″]terpyridin-6′-yl]-amine]"
16,7.28,"CNc1cc(-c2cncc(-c3ccc(C(=O)N4CCN(C)CC4)cc3)c2)cc(-c2cccc(C)n2)n1 [Example 2.28, [4-(6-Methyl-6′-methylamino-[2,2′;4′,3″]terpyridin-5″-yl)-phenyl]-(4-methyl-piperazin-1-yl)-methanone]"
17,7.77,CC(C)N1CCC(n2cc(-c3cncc(-c4cc(-c5ccccn5)nc(C(C)(C)O)c4)c3)cn2)CC1 [Example 2.89]
18,7.13,"[2H]C([2H])([2H])N1CCN(Cc2ccc(-c3cncc(-c4cc(-c5ccccn5)nc(C(C)(C)O)c4)c3)cc2)CC1 [Example 2.85, 2-{5″-[4-(4-Methyl-d3-piperazin-1-ylmethyl)-phenyl]-[2,2′;4′,3″]terpyridin-6′-yl}-propan-2-ol]"
19,8.00,"CNc1cc(-c2cncc(-c3ccc(CN4CCNCC4)cc3)c2)cc(-c2ccccn2)n1 [Example 2.172, Methyl-[5″-(4-piperazin-1-ylmethyl-phenyl)-[2,2′;4′,3″]terpyridin-6′-yl]-amine]"
20,7.89,"[2H]C([2H])([2H])Nc1cc(-c2cncc(-c3cnn(C)c3)c2)cc(-c2ccccn2)n1 [Example 2.104, Methyl-d3-[5″-(1-methyl-1H-pyrazol-4-yl)-[2,2′;4′,3″]terpyridin-6′-yl]-amine]"
21,7.92,"CNc1cc(-c2cncc(-c3ccc(CN4CCN(C)CC4)cc3)c2)cc(-c2ccccn2)n1 [Example 2.26, Methyl-{5″-[4-(4-methyl-piperazin-1-ylmethyl)-phenyl]-[2,2′;4′,3″]terpyridin-6′-yl}-amine]"
22,7.64,"Cc1ccc(-c2cc(-c3cccnc3)cc(NCCc3c[nH]c4ccccc34)n2)o1 [Example 1.3, [2-(1H-Indol-3-yl)-ethyl]-[6′-(5-methyl-furan-2-yl)-[3,4′]bipyridinyl-2′-yl]-amine]"
23,7.42,"Cc1ccc(-c2cc(-c3cncc(-c4ccc(CN5CCN(C(C)C)CC5)cc4)c3)cc(NC3CC3)n2)o1 [Example 2.125, Cyclopropyl-[5-[4-(4-isopropyl-piperazin-1-ylmethyl)-phenyl]-6′-(5-methyl-furan-2-yl)-[3,4′]bipyridinyl-2′-yl]-amine]"
24,7.44,"CC(C)(O)c1cc(-c2cncc(-c3ccc(CN4CCN(C(C)(C)C)CC4)cc3)c2)cc(-c2ccccn2)n1 [Example 2.82, 2-{5″-[4-(4-tert-Butyl-piperazin-1-ylmethyl)-phenyl]-[2,2′;4′,3″]terpyridin-6′-yl}-propan-2-ol]"
25,6.86,"CC1CN(C(=O)c2ccc(-c3cncc(-c4cc(-c5ccccn5)nc(C(C)(C)O)c4)c3)cc2)CC(C)N1C (centres unmarked) [Example 2.87, {4-[6′-(1-Hydroxy-1-methyl-ethyl)-[2,2′;4′,3″]terpyridin-5″-yl]-phenyl}-(3,4,5-trimethyl-piperazin-1-yl)-methanone]"
26,7.13,"Cc1cccc(-c2cc(-c3cncc(-c4ccc(CN5CCN(C(C)C)CC5)cc4)c3)cc(N)n2)n1 [Example 2.71, 5″-[4-(4-Isopropyl-piperazin-1-ylmethyl)-phenyl]-6-methyl-[2,2′;4′,3″]terpyridin-6′-ylamine]"

# — patent US8343966B2, “Organic compounds” (Novartis AG, priority 2008, dated 2013)
